Data from patent publication US10800807B2, “TGR5 modulators and methods of use thereof” (Intercept Pharmaceuticals, Inc., priority 2015, dated 2020).
Numbering of substitutions follows the chain as printed. Read-outs that look alike come from different tables or passages of the source.

How the values were obtained:
[1] = target: T1, human glutathione transferase-tagged FXR-LBD (Homo sapiens, UniProt Q96RI1); assay: FXR AlphaScreen coactivator recruitment assay (human); assay type: biochemical; set-up: Emax: dose or concentration left out as unconfirmed; conditions: for EC50: human FXR-LBD, AlphaScreen, read-out: hFXR EC50; for Emax: read-out: hFXR Efficacy;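 as to hFXR Efficacy: CDCA at 50 µM taken as 100%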
T1 construct: human glutathione transferase-tagged FXR-LBD (Life Technologies, USA); purchased Life Technologies, USA
T1 sequence (Q96RI1 262-486 limits assumed): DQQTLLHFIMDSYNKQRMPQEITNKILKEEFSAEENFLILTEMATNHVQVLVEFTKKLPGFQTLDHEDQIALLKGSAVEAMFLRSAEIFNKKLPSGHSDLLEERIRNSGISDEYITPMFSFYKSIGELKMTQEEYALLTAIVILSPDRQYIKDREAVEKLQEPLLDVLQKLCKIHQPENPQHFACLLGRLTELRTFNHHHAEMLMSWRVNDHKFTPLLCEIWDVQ
Protocol: (§1) Activation of the FXR receptor was determined using a recruitment coactivator assay, namely AlphaScreen technology. The assays were performed using human glutathione transferase-tagged FXR-LBD (Life Technologies, USA) and mouse glutathione transferase-tagged FXR-LBD (generated in-house). Briefly, assays were conducted in white, low-volume, 384-well OptiPlate using a final volume of 25 μL containing 10 nM glutathione transferase-tagged FXR-LBD protein and 30 nM biotinylated Src-1 peptide. The stimulation was carried out with different BA concentrations for 30 minutes at 25° C. […] Dose-response curves were performed in triplicate and Z′ factor was used to validate the robustness of the assay.

[2] = target: T2, mouse glutathione transferase-tagged FXR-LBD (Mus musculus, UniProt Q60641); assay: FXR AlphaScreen coactivator recruitment assay (mouse); assay type: biochemical; conditions: for EC50: read-out: (mFXR) EC50; for Emax: read-out: (mFXR) Efficacy
T2 construct: mouse glutathione transferase-tagged FXR-LBD (generated in-house); made in house
T2 sequence (Q60641 264-488 limits assumed): T1 sequence (Q96RI1 262-486 limits assumed) with H7D, F8Y, N46S, V50I, S95A, S98A, N107K, I125V, I174M, H175Y
Protocol: as §1

[3] = target: T3, mTGR5 (Mus musculus, UniProt Q80SS6); assay: TGR5 activity: cAMP in mTGR5 CHO-Pi10 clone 4 cells; assay type: cell-based; conditions: for Emax: 0.5 h, read-out: (mTGR5 CHO) Efficacy
T3 construct: expressed in transfected cells; host or cells: CHO-Pi10 clone 4
T3 sequence (Q80SS6 1-329): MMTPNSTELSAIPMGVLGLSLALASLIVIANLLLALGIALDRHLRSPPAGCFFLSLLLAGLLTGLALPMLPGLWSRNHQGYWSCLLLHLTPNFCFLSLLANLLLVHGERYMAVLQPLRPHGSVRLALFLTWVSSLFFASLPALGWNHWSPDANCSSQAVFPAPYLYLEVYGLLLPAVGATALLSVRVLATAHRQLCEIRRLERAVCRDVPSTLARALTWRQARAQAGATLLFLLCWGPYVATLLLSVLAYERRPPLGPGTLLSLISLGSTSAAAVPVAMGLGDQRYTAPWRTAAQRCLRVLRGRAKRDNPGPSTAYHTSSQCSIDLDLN

[4] = target: T4, TGR5 (Homo sapiens, UniProt Q8TDU6); assay: TGR5 activity: cAMP in hTGR5 CHO-k1 cells; assay type: cell-based; set-up: expressed in transfected cells; host or cells: CHO-k1; conditions: for Emax: 0.5 h, read-out: hTGR5 CHO Efficacy; for EC50: cAMP
T4 sequence (Q8TDU6 1-330): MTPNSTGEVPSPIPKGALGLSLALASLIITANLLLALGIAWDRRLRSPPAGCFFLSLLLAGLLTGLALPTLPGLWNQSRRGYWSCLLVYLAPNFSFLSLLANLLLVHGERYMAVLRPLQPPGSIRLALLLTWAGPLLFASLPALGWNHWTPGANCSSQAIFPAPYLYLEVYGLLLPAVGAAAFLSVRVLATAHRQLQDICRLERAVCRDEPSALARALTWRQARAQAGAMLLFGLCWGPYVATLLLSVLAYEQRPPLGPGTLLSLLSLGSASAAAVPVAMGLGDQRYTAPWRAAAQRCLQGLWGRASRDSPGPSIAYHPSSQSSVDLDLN

[5] = target: T4, TGR5; assay: TGR5 activity: intracellular cAMP levels, NCI-H716 cells (HTR-FRET); assay type: cell-based; set-up: endogenous in cells; host or cells: NCI-H716; conditions: for Emax: read-out: TGR5 (NCI-H716) Efficacy; for EC50: cAMP
Protocol: Activation of TGR5 was assessed by measuring the level of cAMP using an HTR-FRET assay. Thus, NCI-H716 cells were cultured on 96-well plates coated with Matrigel (Corning, USA) (0.75 mg/ml) in DMEM supplemented with 10% FCS, 100 units/ml penicillin, and 100 μg/ml streptomycin sulphate. […] The level of intracellular cAMP was determined with Lance kit. Z′ factor was used to validate assays.

[6] = mouse FXR-LBD, value in parentheses
[7] = mTGR5 CHO cells, value in parentheses
[8] = hTGR5 CHO cells, Ref. LCA 100% at 10 μM
[9] = 1 h, NCI-H716 cells, Ref. LCA 100% at 10 μM

SMILES	EC50 [1] [nM]	Emax [1] [%]	EC50 [2, 6] [nM]	Emax [2, 6] [%]	Emax [3, 7] [%]	EC50 [3, 7] [nM]	Emax [4, 8] [%]	EC50 ([4]; hTGR5 CHO cells) [nM]	Emax [5, 9] [%]	EC50 ([5]; NCI-H716 cells) [nM]	Emax ([3]; CHO) [%]	Emax ([4]; CHO) [%]	Emax [2] [%]	Emax ([5]; NCI-H716, 1 h) [%]
CC[C@H]1[C@@H](O)[C@@H]2[C@H](C[C@H](O)[C@]3(C)[C@@H]([C@H](C)C[C@H](O)C(=O)O)CC[C@@H]23)[C@@]2(C)CC[C@@H](O)C[C@@H]12 [Compound 1, 3α,7α,12α,23(S)-tetrahydroxy-6α-ethyl-5β-cholan-24-oic acid]	32000 ± 8000	52	146000	9	115	700	103 ± 1	3500 ± 1500	40	19000				
CC[C@H]1[C@@H](O)[C@@H]2[C@H](C[C@H](O)[C@]3(C)[C@@H]([C@H](C)C[C@@H](O)C(=O)O)CC[C@@H]23)[C@@]2(C)CC[C@@H](O)C[C@@H]12 [Compound 2, 3α,7α,12α,23(R)-tetrahydroxy-6α-ethyl-5β-cholan-24-oic acid]	20000 ± 9000	200	84000	61	93.5	1500	47.5 ± 2.5	17000 ± 2000	55	12000				
CC[C@H]1[C@@H](O)C2C3CC[C@H]([C@H](C)C[C@H](CO)C(=O)O)[C@@]3(C)[C@@H](O)CC2[C@@]2(C)CC[C@@H](O)C[C@@H]12 (stereo partly drawn) [Compound 5, 3α,7α,12α-Trihydroxy-6α-ethyl-23(B)-hydroxymethyl-5β-cholan-24-oic acid]	20000	37				3400		21000			84.6	43.6		
CC[C@H]1[C@@H](O)[C@@H]2[C@H](C[C@H](O)[C@]3(C)[C@@H]([C@H](C)C[C@@H](CF)C(=O)O)CC[C@@H]23)[C@@]2(C)CC[C@@H](O)C[C@@H]12 [Compound 6, 3α,7α,12α-Trihydroxy-6α-ethyl-23(A)-fluoromethyl-fluoromethyl-5β-cholan-24-oic acid]	> 100000					3800		29500			81	28		
CC[C@H]1[C@@H](O)[C@@H]2[C@H](C[C@H](O)[C@]3(C)[C@@H]([C@H](C)C[C@H](CF)C(=O)O)CC[C@@H]23)[C@@]2(C)CC[C@@H](O)C[C@@H]12 [Compound 7, 3α,7α,12α-Trihydroxy-6α-ethyl-23(A)-fluoromethyl-fluoromethyl-5β-cholan-24-oic acid]	13000	83			119	2000	27	7900						
CC[C@@H]1C2C[C@H](O)CC[C@]2(C)C2CC[C@@]3(C)C(CC[C@@H]3[C@H](C)Cc3nn[nH]n3)C2[C@@H]1O (stereo partly drawn) [Compound 13]	430	138	1400	208	90	2300	102 ± 3	1000 ± 100	84 ± 14	6400 ± 1100				
CC[C@H]1[C@@H](O)C2C3CC[C@H]([C@H](C)CCc4noc(=O)[nH]4)[C@@]3(C)CCC2[C@@]2(C)CC[C@@H](O)C[C@@H]12 (stereo partly drawn) [Compound 16, 3α,7α-Dihydroxy-6α-ethyl-24-nor-5β-23([1,2,4]-oxadiazole-3-one-5-yl)-cholane]	150 ± 50	165 ± 19	6600	204	99	440	99 ± 4	1200 ± 100	116 ± 9	3000 ± 300				
CC[C@H]1[C@@H](O)[C@@H]2[C@H](CC[C@]3(C)[C@@H]([C@H](C)CCc4nc(=O)o[nH]4)[C@@H](O)C[C@@H]23)[C@@]2(C)CC[C@@H](O)C[C@@H]12 [Compound 18]	550 ± 30	132 ± 8	2300	150	101	370	104 ± 1	110 ± 30	115 ± 4	1800 ± 200				
CC[C@H]1[C@@H](O)C2C3CC[C@H]([C@H](C)CC(=O)NO)[C@@]3(C)CCC2[C@@]2(C)CC[C@@H](O)C[C@@H]12 (stereo partly drawn) [Compound 20]	8700 ± 40	122 ± 3	16000	85	101	500	109 ± 5	300 ± 140	148 ± 1	700 ± 100				
CC[C@H]1[C@@H](O)C2C3CC[C@H]([C@H](C)CCc4nnc(NS(C)(=O)=O)o4)[C@@]3(C)CCC2[C@@]2(C)CC[C@@H](O)C[C@@H]12 (stereo partly drawn) [Compound 23, 2-(3α,7α-Dihydroxy-6α-ethyl-5β-cholan-24-nor-23-cholanyl)-5-methylsulfonamido-1,3,4-oxadiazole]	100 ± 20	175 ± 22	330			1400		1300 ± 100		12500 ± 1500	110	111 ± 2	342	75 ± 1
